Results as given in patent publication US8492372B2, “Modulators of dopamine neurotransmission” (Integrated Research Laboratories Sweden AB, priority 2008, dated 2013).
Counter-ions that a name gives are not always drawn.

Experiments:
[1] = tested on: amphetamine-induced hyper-locomotion; assay: Reduction of amphetamine-induced hyper-locomotion (in vivo behaviour); settings: range in brackets covers 95% of fits; for ED50: Rattus norvegicus, read-out: ED50 reduction of amphetamine-induced hyper-locomotion, rats pre-treated with d-amphetamine 1.5 mg/kg i.p., test compound s.c., curve fit
[2] = tested on: DOPAC (3,4-dihydroxyphenylacetic acid) in the rat striatum; assay: Increase of DOPAC in the rat striatum after systemic administration (in vivo neurochemistry); settings: estimated ED50 on increase of DOPAC in rat striatum, curve fit, range in brackets covers 95% of fits; for ED50 DOPAC: s.c.; for ED50: Rattus norvegicus, sc
Text: After the behavioural activity sessions, the rats are decapitated and their brains rapidly taken out and put on an ice-cold petri-dish. The limbic forebrain, the striatum, the frontal cortex and the remaining hemispheral parts of each rat are dissected and frozen. Each brain part is subsequently analyzed with respect to its content of monoamines and their metabolites.
The monoamine transmitter substances (NA (noradrenaline), DA (dopamine), 5-HT (serotonin)) as well as their amine (NM (normethanephrine), 3-MT (3-methoxytyramine)) and acid (DOPAC (3,4-dihydroxyphenylacetic acid), 5-HIAA (5-hydroxyindoleacetic acid), HVA (homovanillic acid)) metabolites are quantified in brain tissue homogenates by HPLC separations and electrochemical detection.
The analytical method is based on two chromatographic separations dedicated for amines or acids. Two chromatographic systems share a common auto injector with a 10-port valve and two sample loops for simultaneous injection on the two systems. Both systems are equipped with a reverse phase column (Luna C18(2), dp 3 μm, 50*2 mm i.d., Phenomenex) and electrochemical detection is accomplished at two potentials on glassy carbon electrodes (MF-1000, Bioanalytical Systems, Inc.). The column effluent is passed via a T-connection to the detection cell or to a waste outlet. This is accomplished by two solenoid valves, which block either the waste or detector outlet. By preventing the chromatographic front from reaching the detector, better detection conditions are achieved. The aqueous mobile phase (0.4 ml/min) for the acid system contains citric acid 14 mM, sodium citrate 10 mM, MeOH 15% (v/v) and EDTA 0.1 mM. Detection potentials relative to Ag/AgCl reference are 0.45 and 0.60V. The aqueous ion pairing mobile phase (0.5 ml/min) for the amine system contains citric acid 5 mM, sodium citrate 10 mM, MeOH 9% (v/v), MeCN 10.5% v/v), decane sulfonic acid 0.45 mM, and EDTA 0.1 mM. Detection potentials relative to Ag/AgCl reference are 0.45 and 0.65V.
ED50 values for the increase of DOPAC in striatum are calculated by curve fitting.

[3] = tested on: Locomotor activity in drug-naive rats; assay: Locomotor activity in drug-naive rats (in vivo behaviour); parameters: species or system rat; settings: recorded for 60 minutes immediately after drug administration
Text: Photobeam sensors are spaced 2.5 cm apart.

O=S(=O)(c1ccc2c(c1)OC(CN1CCCC1)OC2)C(F)(F)F (centres unmarked) (as salt: fumaric acid salt) [Example 7, 1-({7-[(TRIFLUOROMETHYL)SULFONYL]-4H-1,3-BENZODIOXIN-2-YL}METHYL)PYRROLIDINE]
melting point: 184 °C

CCNCC1OCc2ccc(S(=O)(=O)C(F)(F)F)cc2O1 (centres unmarked) (as salt: hydrochloric acid salt)
melting point: 169 °C

CCCNCC1OCc2ccc(C(F)(F)F)cc2O1 (centres unmarked) (as salt: hydrochloric acid salt) [Example 1, N-{[7-(TRIFLUOROMETHYL)-4H-1,3-BENZODIOXIN-2-YL]METHYL}PROPAN-1-AMIN]
melting point: 203 °C

CCCNCC1OCc2ccc(S(C)(=O)=O)cc2O1 (centres unmarked) (as salt: hydrochloric acid salt) [Example 3, N-{[7-(METHYLSULFONYL)-4H-1,3-BENZODIOXIN-2-YL]METHYL}PROPAN-1-AMINE]
melting point: 213 °C

CCCNCC1OCc2ccc(S(=O)(=O)C(F)(F)F)cc2O1 (centres unmarked) (as salt: hydrochloric acid salt) [Example 8, N-({7-[(TRIFLUOROMETHYL)SULFONYL]-4H-1,3-BENZODIOXIN-2-YL}METHYL)PROPAN-1-AMINE]
melting point: 201 °C

CNCC1OCc2ccc(S(C)(=O)=O)cc2O1 (centres unmarked) (as salt: hydrochloric acid salt) [Example 12, N-METHYL-1-[7-(METHYLSULFONYL)-4H-1,3-BENZODIOXIN-2-YL]METHANAMINE]
melting point: 225 °C

CCCNCC1OCc2cc(F)c(Br)cc2O1 (centres unmarked) (as salt: hydrochloric acid salt) [Example 19, N-[(7-BROMO-6-FLUORO-4H-1,3-BENZODIOXIN-2-YL)METHYL]PROPAN-1-AMINE]
melting point: 182 °C

CCCNCC1OCc2c(F)cc(Br)cc2O1 (centres unmarked) (as salt: oxalic acid salt) [Example 16, N-[(7-BROMO-5-FLUORO-4H-1,3-BENZODIOXIN-2-YL)METHYL]PROPAN-1-AMINE]
melting point: 215 °C

CCCNCC1OCc2ccc(S(C)(=O)=O)cc2O1 (single isomer, unassigned; (+)) [Example 5, (+)-N-{[7-(METHYLSULFONYL)-4H-1,3-BENZODIOXIN-2-YL]METHYL}PROPAN-1-AMINE]
ED50 [1]: 15 µmol/kg | ED50 DOPAC [2]: 12 (9.3-14) μmol/kg | Locomotor activity ([3]; 3.7 μmol/kg): 9173 ± 3160 counts/60 min ± SEM | Locomotor activity ([3]; 11 μmol/kg): 8274 ± 801 counts/60 min ± SEM | Locomotor activity ([3]; 33 μmol/kg): 4854 ± 771 counts/60 min ± SEM

CCCNCC1OCc2ccc(S(C)(=O)=O)cc2O1 (single isomer, unassigned; (-)) [Example 4, (−)-N-{[7-(METHYLSULFONYL)-4H-1,3-BENZODIOXIN-2-YL]METHYL}PROPAN-1-AMINE]
ED50 reduction of amphetamine-induced hyper-locomotion ([1]; rats pre-treated with d-amphetamine 1.5 mg/kg i.p., test compound s.c., curve fit): 27 (19-35) μmol/kg | ED50 DOPAC [2]: 27 (23-31) μmol/kg | Locomotor activity ([3]; 3.7 μmol/kg): 9158 ± 2094 counts/60 min ± SEM | Locomotor activity ([3]; 11 μmol/kg): 11153 ± 1257 counts/60 min ± SEM | Locomotor activity ([3]; 33 μmol/kg): 12588 ± 331 counts/60 min ± SEM

CCCNCC1OCc2ccc(C(F)(F)F)cc2O1 (centres unmarked) [Example 1, N-{[7-(TRIFLUOROMETHYL)-4H-1,3-BENZODIOXIN-2-YL]METHYL}PROPAN-1-AMIN]
ED50 [1]: 3.9 µmol/kg | ED50 [2]: 17 µmol/kg | Locomotor activity ([3]; 3.7 μmol/kg): 8038 ± 1487 counts/60 min ± SEM | Locomotor activity ([3]; 11 μmol/kg): 7279 ± 968 counts/60 min ± SEM | Locomotor activity ([3]; 33 μmol/kg): 2682 ± 802 counts/60 min ± SEM

O=S(=O)(c1ccc2c(c1)OC(CN1CCCC1)OC2)C(F)(F)F (centres unmarked) [Example 7, 1-({7-[(TRIFLUOROMETHYL)SULFONYL]-4H-1,3-BENZODIOXIN-2-YL}METHYL)PYRROLIDINE]
ED50 [1]: 50 µmol/kg | ED50 [2]: 48 µmol/kg | Locomotor activity ([3]; 3.7 μmol/kg): 9548 ± 1455 counts/60 min ± SEM | Locomotor activity ([3]; 11 μmol/kg): 7270 ± 278 counts/60 min ± SEM | Locomotor activity ([3]; 33 μmol/kg): 11818 ± 2775 counts/60 min ± SEM

CCCNCC1OCc2ccc(S(=O)(=O)C(F)(F)F)cc2O1 (centres unmarked) [Example 8, N-({7-[(TRIFLUOROMETHYL)SULFONYL]-4H-1,3-BENZODIOXIN-2-YL}METHYL)PROPAN-1-AMINE]
ED50 [1]: 4.9 µmol/kg | ED50 [2]: 7 µmol/kg | Locomotor activity ([3]; 3.7 μmol/kg): 11601 ± 583 counts/60 min ± SEM | Locomotor activity ([3]; 11 μmol/kg): 7064 ± 1032 counts/60 min ± SEM | Locomotor activity ([3]; 33 μmol/kg): 2641 ± 757 counts/60 min ± SEM

CCCNCC1OCc2c(F)cc(Br)cc2O1 (centres unmarked) [Example 16, N-[(7-BROMO-5-FLUORO-4H-1,3-BENZODIOXIN-2-YL)METHYL]PROPAN-1-AMINE]
ED50 [2]: 20 µmol/kg | Locomotor activity ([3]; 3.7 μmol/kg): 8637 ± 1217 counts/60 min ± SEM | Locomotor activity ([3]; 11 μmol/kg): 7537 ± 2127 counts/60 min ± SEM | Locomotor activity ([3]; 33 μmol/kg): 7393 ± 1395 counts/60 min ± SEM

CCCNCC1OCc2c(F)cc(S(C)(=O)=O)cc2O1 (centres unmarked) [Example 17, N-{[5-FLUORO-7-(METHYLSULFONYL)-4H-1,3-BENZODIOXIN-2-YL]METHYL}PROPAN-1-AMINE]
ED50 [2]: 8.6 µmol/kg | Locomotor activity ([3]; 3.7 μmol/kg): 10520 ± 1381 counts/60 min ± SEM | Locomotor activity ([3]; 11 μmol/kg): 8330 ± 2194 counts/60 min ± SEM | Locomotor activity ([3]; 33 μmol/kg): 3319 ± 140 counts/60 min ± SEM

CCCNCC1OCc2cc(F)c(S(C)(=O)=O)cc2O1 (centres unmarked) [Example 20, N-{[6-FLUORO-7-(METHYLSULFONYL)-4H-1,3-BENZODIOXIN-2-YL]METHYL}PROPAN-1-AMINE]
ED50 [2]: 11 µmol/kg | Locomotor activity ([3]; 3.7 μmol/kg): 8830 ± 1277 counts/60 min ± SEM | Locomotor activity ([3]; 11 μmol/kg): 10181 ± 1385 counts/60 min ± SEM | Locomotor activity ([3]; 33 μmol/kg): 5502 ± 474 counts/60 min ± SEM

CS(=O)(=O)c1ccc2c(c1)OC(CN1CCCCC1)OC2 (centres unmarked) [Example 21, 1-{[7-(METHYLSULFONYL)-4H-1,3-BENZODIOXIN-2-YL]METHYL}PIPERIDINE]
ED50 [1]: 14 µmol/kg | ED50 [2]: 13 µmol/kg | Locomotor activity ([3]; 3.7 μmol/kg): 8285 ± 721 counts/60 min ± SEM | Locomotor activity ([3]; 11 μmol/kg): 6585 ± 707 counts/60 min ± SEM | Locomotor activity ([3]; 33 μmol/kg): 4197 ± 923 counts/60 min ± SEM
